In ChEMBL document CHEMBL3390835, “New insight into the mode of action of vancomycin dimers in bacterial cell wall synthesis” (Medchemcomm, 2011):
≈ marks a conversion by molar mass, not a printed value. Calls of active or inactive are those of the source. The rule behind the calls is not given here.

Key:
[1] = system: Enterococcus faecium; assay: Inhibition of fatty acid synthesis in vancomycin B-resistant Enterococcus faecium SRM1101 assessed as [14C]acetic acid incorporation measured after 15 mins cultivation; assay type: functional, organism-based
[2] = system: Enterococcus faecium; assay: Inhibition of RNA synthesis in vancomycin B-resistant Enterococcus faecium SRM1101 assessed as [3H]uracil incorporation measured after 15 mins cultivation; assay type: functional, organism-based
[3] = system: Enterococcus faecium; assay: Inhibition of peptidoglycan synthesis in vancomycin B-resistant Enterococcus faecium SRM1101 assessed as [3H]N-acetyl-D-glucosamine incorporation measured after 15 mins cultivation; assay type: functional, organism-based
[4] = system: Enterococcus faecium; assay: Inhibition of protein synthesis in vancomycin B-resistant Enterococcus faecium SRM1101 assessed as [14C]leucine incorporation measured after 15 mins cultivation; assay type: functional, organism-based
[5] = system: Enterococcus faecium; assay: Inhibition of DNA synthesis in vancomycin B-resistant Enterococcus faecium SRM1101 assessed as [14C]thymidine incorporation measured after 15 mins cultivation; assay type: functional, organism-based
[6] = system: Staphylococcus aureus; assay: Inhibition of cell wall synthesis in vancomycin-susceptible Staphylococcus aureus assessed as reduction of lipid intermediate synthesis using UDP-Mur-NAc-pentapeptide (L-Ala-gamma-D-Glu-L-Lys-D-Ala-D-Ala), UDPGlcNAc and [14C] glycine as precursors; assay type: functional, organism-based
[7] = system: Enterococcus faecium; assay: Antibacterial activity against vancomycin A-resistant Enterococcus faecium SR7940; assay type: functional
[8] = system: Staphylococcus aureus; assay: Inhibition of cell wall synthesis in vancomycin-susceptible Staphylococcus aureus assessed as reduction of peptidoglycan synthesis using UDP-Mur-NAc-pentapeptide (L-Ala-gamma-D-Glu-L-Lys-D-Ala-D-Ala), UDPGlcNAc and [14C] glycine as precursors; assay type: functional, organism-based
[9] = system: Enterococcus faecium; assay: Antibacterial activity against vancomycin B-resistant Enterococcus faecium SR23598; assay type: functional
[10] = system: Staphylococcus aureus; assay: Inhibition of cell wall synthesis in vancomycin-resistant Staphylococcus aureus assessed as reduction of peptidoglycan synthesis using UDP-Mur-NAc-pentapeptide (L-Ala-gamma-D-Glu-L-Lys-D-Ala-D-Lactate), UDPGlcNAc and [14C] glycine as precursors; assay type: functional, organism-based
[11] = system: Staphylococcus aureus; assay: Antibacterial activity against vancomycin-susceptible Staphylococcus aureus RN4220; assay type: functional
[12] = system: Staphylococcus aureus; assay: Inhibition of cell wall synthesis in vancomycin-resistant Staphylococcus aureus assessed as reduction of lipid intermediate synthesis using UDP-Mur-NAc-pentapeptide (L-Ala-gamma-D-Glu-L-Lys-D-Ala-D-Lactate), UDPGlcNAc and [14C] glycine as precursors; assay type: functional, organism-based

SMILES: CN[C@H](CC(C)C)C(=O)N[C@H]1C(=O)N[C@@H](CC(N)=O)C(=O)N[C@H]2C(=O)N[C@H]3C(=O)N[C@H](C(=O)N[C@H](C(=O)O)c4cc(O)cc(O)c4-c4cc3ccc4O)[C@H](O)c3ccc(c(Cl)c3)Oc3cc2cc(c3O[C@@H]2O[C@H](CO)[C@@H](O)[C@H](O)[C@H]2O[C@H]2C[C@](C)(N)[C@H](O)[C@H](C)O2)Oc2ccc(cc2Cl)[C@H]1O
- inhibition [1]: inactive
- inhibition [2]: inactive
- inhibition [3]: inactive
- inhibition [4]: inactive
- inhibition [5]: inactive

SMILES: CN[C@H](CC(C)C)C(=O)N[C@H]1C(=O)N[C@@H](CC(N)=O)C(=O)N[C@H]2C(=O)N[C@H]3C(=O)N[C@H](C(=O)N[C@H](C(=O)O)c4cc(O)cc(O)c4-c4cc3ccc4O)[C@H](O)c3ccc(c(Cl)c3)Oc3cc2cc(c3O[C@@H]2O[C@H](CO)[C@@H](O)[C@H](O)[C@H]2O[C@H]2C[C@](C)(NCc3cccc(NC(=O)c4ccc(C)c5oc6c(C)c(=O)c(N)c(C(=O)Nc7cccc(CN[C@@]8(C)C[C@H](O[C@H]9[C@H](Oc%10c%11cc%12cc%10Oc%10ccc(cc%10Cl)[C@@H](O)[C@@H](N)C(=O)N[C@@H](CC(N)=O)C(=O)N[C@H]%12C(=O)N[C@H]%10C(=O)N[C@H](C(=O)N[C@H](C(=O)O)c%12cc(O)cc(O)c%12-c%12cc%10ccc%12O)[C@H](O)c%10ccc(c(Cl)c%10)O%11)O[C@H](CO)[C@@H](O)[C@@H]9O)O[C@@H](C)[C@H]8O)c7)c-6nc45)c3)[C@H](O)[C@H](C)O2)Oc2ccc(cc2Cl)[C@H]1O
- IC50 [6]: 74 mg/L (≈ 22.6 µM)
- inhibition [1]: inactive
- inhibition [2]: inactive
- inhibition [3]: inactive
- MIC [7]: 8 mg/L (≈ 2.44 µM)
- IC50 [8]: 11 mg/L (≈ 3.36 µM)
- inhibition [4]: inactive
- inhibition [5]: inactive
- MIC [9]: 2 mg/L (≈ 0.611 µM)
- IC50 [10]: 61 mg/L (≈ 18.6 µM)
- MIC [11]: 1 mg/L (≈ 0.305 µM)
- IC50 [12]: 300 mg/L (≈ 91.6 µM)

SMILES: CN[C@H](CC(C)C)C(=O)N[C@H]1C(=O)N[C@@H](CC(N)=O)C(=O)N[C@H]2C(=O)N[C@H]3C(=O)N[C@H](C(=O)N[C@H](C(=O)O)c4cc(O)cc(O)c4-c4cc3ccc4O)[C@H](O)c3ccc(c(Cl)c3)Oc3cc2cc(c3O[C@@H]2O[C@H](CO)[C@@H](O)[C@H](O)[C@H]2O[C@H]2C[C@](C)(NCc3c4oc5c(CN[C@@]6(C)C[C@H](O[C@H]7[C@H](Oc8c9cc%10cc8Oc8ccc(cc8Cl)[C@@H](O)[C@@H](NC(=O)[C@@H](CC(C)C)NC)C(=O)N[C@@H](CC(N)=O)C(=O)N[C@H]%10C(=O)N[C@H]8C(=O)N[C@H](C(=O)N[C@H](C(=O)O)c%10cc(O)cc(O)c%10-c%10cc8ccc%10O)[C@H](O)c8ccc(c(Cl)c8)O9)O[C@H](CO)[C@@H](O)[C@@H]7O)O[C@@H](C)[C@H]6O)cccc5nc-4cc(N)c3=O)[C@H](O)[C@H](C)O2)Oc2ccc(cc2Cl)[C@H]1O
- IC50 [6]: 98 mg/L (≈ 31.3 µM)
- MIC [7]: 8 mg/L (≈ 2.55 µM)
- IC50 [8]: 2.2 mg/L (≈ 0.702 µM)
- MIC [9]: 1 mg/L (≈ 0.319 µM)
- IC50 [10]: 31 mg/L (≈ 9.89 µM)
- MIC [11]: 2 mg/L (≈ 0.638 µM)
- IC50 [12]: 700 mg/L (≈ 223 µM)

SMILES: Cc1c2oc3c(C)ccc(C(=O)Nc4cccc(CN[C@@]5(C)C[C@H](O[C@H]6[C@H](Oc7c8cc9cc7Oc7ccc(cc7Cl)[C@@H](O)[C@@H](N)C(=O)N[C@@H](CC(N)=O)C(=O)N[C@H]9C(=O)N[C@H]7C(=O)N[C@H](C(=O)N[C@H](C(=O)O)c9cc(O)cc(O)c9-c9cc7ccc9O)[C@H](O)c7ccc(c(Cl)c7)O8)O[C@H](CO)[C@@H](O)[C@@H]6O)O[C@@H](C)[C@H]5O)c4)c3nc-2c(C(=O)Nc2cccc(CN[C@@]3(C)C[C@H](O[C@H]4[C@H](Oc5c6cc7cc5Oc5ccc(cc5Cl)[C@@H](O)[C@@H](N)C(=O)N[C@@H](CC(N)=O)C(=O)N[C@H]7C(=O)N[C@H]5C(=O)N[C@H](C(=O)N[C@H](C(=O)O)c7cc(O)cc(O)c7-c7cc5ccc7O)[C@H](O)c5ccc(c(Cl)c5)O6)O[C@H](CO)[C@@H](O)[C@@H]4O)O[C@@H](C)[C@H]3O)c2)c(N)c1=O
- IC50 [6]: 460 mg/L (≈ 146 µM)
- MIC [7]: > 64 mg/L
- IC50 [8]: 20 mg/L (≈ 6.36 µM)
- MIC [9]: 32 mg/L (≈ 10.2 µM)
- IC50 [10]: 100 mg/L (≈ 31.8 µM)
- MIC [11]: 4 mg/L (≈ 1.27 µM)
- IC50 [12]: 530 mg/L (≈ 168 µM)

SMILES: CN[C@H](CC(C)C)C(=O)N[C@H]1C(=O)N[C@@H](CC(N)=O)C(=O)N[C@H]2C(=O)N[C@H]3C(=O)N[C@H](C(=O)N[C@H](C(=O)NCc4cccc(NC(=O)c5c6nc7c(C(=O)Nc8cccc(CNC(=O)[C@H]9NC(=O)[C@H]%10NC(=O)[C@H](NC(=O)[C@@H]%11NC(=O)[C@H](CC(N)=O)NC(=O)[C@H](NC(=O)[C@@H](CC(C)C)NC)[C@H](O)c%12ccc(c(Cl)c%12)Oc%12cc%11cc(c%12O[C@@H]%11O[C@H](CO)[C@@H](O)[C@H](O)[C@H]%11O[C@H]%11C[C@](C)(N)[C@H](O)[C@H](C)O%11)Oc%11ccc(cc%11Cl)[C@H]%10O)c%10ccc(O)c(c%10)-c%10c(O)cc(O)cc%109)c8)ccc(C)c7oc-6c(C)c(=O)c5N)c4)c4cc(O)cc(O)c4-c4cc3ccc4O)[C@H](O)c3ccc(c(Cl)c3)Oc3cc2cc(c3O[C@@H]2O[C@H](CO)[C@@H](O)[C@H](O)[C@H]2O[C@H]2C[C@](C)(N)[C@H](O)[C@H](C)O2)Oc2ccc(cc2Cl)[C@H]1O
- inhibition [1]: inactive
- inhibition [2]: inactive
- inhibition [3]: inactive
- MIC [7]: 16 mg/L (≈ 4.71 µM)
- inhibition [4]: inactive
- inhibition [5]: inactive
- MIC [9]: 16 mg/L (≈ 4.71 µM)
- MIC [11]: 8 mg/L (≈ 2.35 µM)

SMILES: CN[C@H](CC(C)C)C(=O)N[C@H]1C(=O)N[C@@H](CC(N)=O)C(=O)N[C@H]2C(=O)N[C@H]3C(=O)N[C@H](C(=O)N[C@H](C(=O)NCc4c5oc6c(CNC(=O)[C@H]7NC(=O)[C@H]8NC(=O)[C@H](NC(=O)[C@@H]9NC(=O)[C@H](CC(N)=O)NC(=O)[C@H](NC(=O)[C@@H](CC(C)C)NC)[C@H](O)c%10ccc(c(Cl)c%10)Oc%10cc9cc(c%10O[C@@H]9O[C@H](CO)[C@@H](O)[C@H](O)[C@H]9O[C@H]9C[C@](C)(N)[C@H](O)[C@H](C)O9)Oc9ccc(cc9Cl)[C@H]8O)c8ccc(O)c(c8)-c8c(O)cc(O)cc87)cccc6nc-5cc(N)c4=O)c4cc(O)cc(O)c4-c4cc3ccc4O)[C@H](O)c3ccc(c(Cl)c3)Oc3cc2cc(c3O[C@@H]2O[C@H](CO)[C@@H](O)[C@H](O)[C@H]2O[C@H]2C[C@](C)(N)[C@H](O)[C@H](C)O2)Oc2ccc(cc2Cl)[C@H]1O
- IC50 [6]: 64 mg/L (≈ 20.4 µM)
- MIC [7]: 4 mg/L (≈ 1.28 µM)
- IC50 [8]: 1.2 mg/L (≈ 0.383 µM)
- MIC [9]: 1 mg/L (≈ 0.319 µM)
- IC50 [10]: 21 mg/L (≈ 6.7 µM)
- MIC [11]: 16 mg/L (≈ 5.11 µM)
- IC50 [12]: 200 mg/L (≈ 63.8 µM)
